What all share (assay type): cell-based
One assay relates to TTU-1 (breast cancer). Description: XTT assay, viability of TTU-1 at 450 nm. Here is the method: Each of 5×10^3 breast cancer cells MDA-MB-231 and TTU-1 were seeded in a 96-well flat-bottomed microplate, and cultured in CO2 incubator. Cells were seeded in a 96-well tissue culture plate at a density of 10,000 cells for normal cells and 5,000 cells for cancer cells. DMEM plus 10% fetal bovine serum was used as a culture medium. […] […] After that, absorbance value were measured using microplate spectrophotometer at a wavelength of 450 nm. In addition, Annexin-V/PI-stained MDA-MB-231 and TTU-1 cells were photographed and observed.

Another assay relates to HepG2 (liver cancer). Description: MTT assay, viability of HepG2 at 500 nm. Set-up: value of the treated group, Mean value: unit not given here. The protocol:
(§1) Similarly, MTT assay was performed for lung cancer cell line A549 and liver cancer cell line HepG2. But, MTT solutions were added instead of XTT solutions; as a culture medium, RPMI1640 with L-glutamine (300 mg/L), 25 mM HEPES and 25 mM NaHCO3 90% and heat-inactivated fetal bovine serum (FBS) 10% was used for A549, and minimum essential medium, 25 mM HEPES and 25 mM NaHCO3 90% and heat-inactivated fetal bovine serum (FBS) 10% was used for HepG2; and MTT values were measured at 1 d, 2 d, 3 d and 4 d, respectively.
(§2) In the following, the values for the composition of the invention indicate the mean value of values obtained using the extracts of the Examples 1 to 3.
The following Table 7 and FIG. 12 show the value of the treated group determined in cell line HepG2.
On the technique in general: Formazan colour is commonly taken as a measure of viable cells.

For the next assay, the system named is A549 (lung cancer). Description: MTT assay, viability of A549 at 500 nm. More on the design: value of the treated group, Mean value: unit not given here. The protocol:
as §1, §2
The following Table 6 and FIG. 11 show the value of the treated group determined in cell line A549.

Assay [1] deals with MDA-MB-231 (breast cancer). Description: XTT assay, viability of MDA-MB-231 at 450 nm. More on the design: key to value of [the treated group−the blank group], Mean value: absorbance at 450 nm, treated minus blank. The protocol:
Each of 5×10^3 breast cancer cells MDA-MB-231 and TTU-1 were seeded in a 96-well flat-bottomed microplate, and cultured in CO2 incubator. Cells were seeded in a 96-well tissue culture plate at a density of 10,000 cells for normal cells and 5,000 cells for cancer cells. DMEM plus 10% fetal bovine serum was used as a culture medium. At 24 hours after seeding, the extracts obtained in the Examples 1 to 3 were added to each well. At 12 hours after added the extracts, XTT solutions were added and then the cells were incubated for 2 hours. After that, absorbance value were measured using microplate spectrophotometer at a wavelength of 450 nm. In addition, Annexin-V/PI-stained MDA-MB-231 and TTU-1 cells were photographed and observed.
as §2
The following Table 4 and FIG. 9 show the value of [the treated group−the blank group] determined in cell line MDA-MB-231.

For `CC(=O)O[C@H]1C(=O)[C@@]2(C)[C@H]([C@H](OC(=O)c3ccccc3)[C@]3(O)C[C@H](OC(=O)[C@H](O)[C@@H](NC(=O)c4ccccc4)c4ccccc4)C(C)=C1C3(C)C)[C@]1(OC(C)=O)CO[C@@H]1C[C@@H]2O` [Taxol], the “course of the value as time goes by (FIG. 10)” value in the assay on TTU-1 (breast cancer) is recorded as “increasing”. For the same compound, the “value of [the treated group−the blank group], Mean value” in the assay on TTU-1 (breast cancer) (1.2 × 10^−7M, 12 h) is 0.079; in the assay with TTU-1 (breast cancer) (1.2 × 10^−7M, 84 h), 0.123; in the assay with TTU-1 (breast cancer) (1.2 × 10^−7M, 108 h), 0.012; in the assay with TTU-1 (breast cancer) (1.2 × 10^−7M, 132 h), 0.084; in the assay with TTU-1 (breast cancer) (2.5 × 10^−6M, 12 h), 0.067; with TTU-1 (breast cancer) (2.5 × 10^−6M, 108 h), −0.002. Besides, the “value of [the treated group−the blank group], Mean value” was 0.035 in the assay on TTU-1 (breast cancer) (2.5 × 10^−6M, 132 h); 0.074 in assay [1] (1.2 × 10^−7M, 12 h); 0.107 in assay [1] (1.2 × 10^−7M, 84 h); −0.006 in assay [1] (1.2 × 10^−7M, 108 h); 0.034 in assay [1] (1.2 × 10^−7M, 132 h); 0.076 in assay [1] (2.5 × 10^−6M, 12 h). Also, the “value of [the treated group−the blank group], Mean value” is on record as 0.085 in assay [1] (2.5 × 10^−6M, 84 h); 0.024 in assay [1] (2.5 × 10^−6M, 108 h); −0.007 in assay [1] (2.5 × 10^−6M, 132 h). For the same compound, in the assay with HepG2 (liver cancer), the “course of the value as time goes by (FIG. 12)” value is “increasing”. In addition, the “value of the treated group, Mean value” is on record as 2.73 in the assay with HepG2 (liver cancer) (35.1 uM/ml, 24 h); 2.604 with HepG2 (liver cancer) (35.1 uM/ml, 48 h); 2.506 in the assay on HepG2 (liver cancer) (35.1 uM/ml, 72 h); 2.546 with HepG2 (liver cancer) (35.1 uM/ml, 96 h); 2.71 in the assay on HepG2 (liver cancer) (70.2 uM/ml, 24 h); 2.595 with HepG2 (liver cancer) (70.2 uM/ml, 48 h). The “value of the treated group, Mean value” in the assay on HepG2 (liver cancer) (70.2 uM/ml, 72 h) is reported as 2.466; with HepG2 (liver cancer) (70.2 uM/ml, 96 h) it was 2.389; in the assay on A549 (lung cancer) (35.1 uM/ml, 24 h), 2.438; in the assay with A549 (lung cancer) (35.1 uM/ml, 48 h), 2.753; with A549 (lung cancer) (35.1 uM/ml, 72 h) it was 2.6; in the assay with A549 (lung cancer) (35.1 uM/ml, 96 h), 2.934. In addition, the “value of the treated group, Mean value” with A549 (lung cancer) (70.2 uM/ml, 24 h) amounted to 2.488; in the assay with A549 (lung cancer) (70.2 uM/ml, 48 h), 2.911; in the assay with A549 (lung cancer) (70.2 uM/ml, 72 h), 2.691; in the assay on A549 (lung cancer) (70.2 uM/ml, 96 h), 2.98. For the same compound, the “course of the value as time goes by (FIG. 11)” value in the assay on A549 (lung cancer) was “increasing”. Further, in assay [1], the “course of the value as time goes by (FIG. 9)” value is listed as “increasing”.

In the case of `O=c1[nH]cc(F)c(=O)[nH]1` [Example 5-FU, 5-FU], the “value of the treated group, Mean value” in the assay with HepG2 (liver cancer) (1,000 ppm, 24 h) came to 2.867; in the assay with HepG2 (liver cancer) (1,000 ppm, 48 h), 1.998; in the assay with HepG2 (liver cancer) (1,000 ppm, 72 h) it was 1.853; in the assay on HepG2 (liver cancer) (1,000 ppm, 96 h), 0.938; with A549 (lung cancer) (1,000 ppm, 24 h) it was 2.298; with A549 (lung cancer) (1,000 ppm, 48 h) it was 1.697. Also, the “value of the treated group, Mean value” with A549 (lung cancer) (1,000 ppm, 72 h) stood at 0.863; in the assay on A549 (lung cancer) (1,000 ppm, 96 h), 0.42.

Source of the values: US20120015056A1, “COMPOSITION COMPRISING EXTRACTS OR FRACTIONS OF SPECIFIC PLANTS, USE THEREOF AND PROCESS FOR PREPARING THE EXTRACTS” (priority 2010, published 2012).
